In one assay the test system is male Balb/cJ mice. The assay is described as follows: Forced swim test in mice. The assay is classed as in vivo. The procedure: Subjects. The subjects were male Balb/cJ mice obtained from Jackson Laboratory, Bar Harbor, Me. Mice were housed 4 per cage under controlled conditions of temperature, relative humidity and light-dark cycle with free access to food and water.
Procedures. […] Mice were individually placed into clear glass cylinders (i.e., 15 cm tall×10 cm wide, 1 L beakers) containing 23±1° C. water 12 cm deep (approximately 800 mL). The time the animal spent immobile was recorded over a 6 min trial. Immobility was described as the postural position of floating in the water.
Drugs. […] The mice were injected intraperitoneally (i.p.) 30 minutes before the start of the test. In another set of experiments, the test compounds were administered orally (p.o.) 30 minutes before the start of the test.
Statistics. The length of time spent floating was analyzed by Analysis of Variance (ANOVA) with dose of drug as the between-subject factor and time spent immobile across the 6 min test as the dependent variable. Post-hoc comparisons between the treatment groups and control group were made using Fisher's PLSD test. A significance level of 5% was used throughout.

The next assay has as its target T1, α4β4 nicotinic receptor (Rattus norvegicus, UniProt P09483+P12392).
T1 construct: expressed in transfected cells; host or cells: stably transfected cell lines (e.g., HEK293, COS, CHO, NIH3T3)
In words: biochemical. It is filed as binding. How it is done: (§1) All binding assays were performed according to procedures set forth in the University of North Carolina at Chapel Hill National Institute of Mental Health Psychoactive Drug Screening Program Assay Protocol Book (pp. 50-54; PI: Bryan L. Roth MD, PhD).
(§2) Nicotinic receptors: α2β2, α2β4, α3β2, α3β4, α4β2, α4β4, endogenous α4β2. Assay buffer: 50 mM Tris-HCl, pH 7.4. Membrane fraction source: Stably transfected cell lines (e.g., HEK293, COS, CHO, NIH3T3) (α2β2, α2β4, α3β2, α3β4, α4β2, α4β4) or rat forebrain (α4β2).
(§3) Aliquots (50 μl) of radioligand were dispensed into the wells of a 96-well plate containing 100 μl of assay buffer. Then, duplicate 50-μl aliquots of the test and reference compound dilutions were added.
(§4) Finally, crude membrane fractions of cells expressing recombinant target (prepared from 10-cm plates by harvesting PBS-rinsed monolayers, resuspending and lysing in chilled, hypotonic 50 mM Tris-HCl, pH 7.4, centrifuging at 20,000×g, decanting the supernatant and storing at −80° C.; typically, one 10-cm plate provides sufficient material for 24 wells) were resuspended in 3 ml of chilled assay buffer and homogenized by several passages through a 26 gauge needle, then 50 μl were dispensed into each well.
(§5) The 250-μl reactions were incubated at room temperature and shielded from light (to prevent photolysis of light-sensitive ligands) for 4 hours, then harvested by rapid filtration onto Whatman GF/B glass fiber filters pre-soaked with 0.5% polyethyleneimine using a 96-well Brandel harvester. Four rapid 500-μl washes were performed with chilled Standard Binding Buffer to reduce non-specific binding. Filters were placed in 6-ml scintillation tubes and allowed to dry overnight. The next day, 4 ml of EcoScint scintillation cocktail (National Diagnostics) were added to each tube. The tubes were capped, labeled, and counted by liquid scintillation counting.
(§6) Raw data (dpm) representing total radioligand binding (i.e., specific+non-specific binding) were plotted as a function of the logarithm of the molar concentration of the competitor (i.e., test or reference compound).

The target of another assay is T2, α2β4 nicotinic receptor (Rattus norvegicus, UniProt P12389+P12392).
T2 construct: expressed in transfected cells; host or cells: stably transfected cell lines (e.g., HEK293, COS, CHO, NIH3T3)
The assay is described as follows: biochemical. It is filed as binding. How it is done:
as §1, §2, §3, §4, §5, §6

Another assay deals with T3, α4β2 nicotinic receptor (Rattus norvegicus, UniProt P09483+P12390).
T3 construct: expressed in transfected cells; host or cells: stably transfected cell lines (e.g., HEK293, COS, CHO, NIH3T3)
The assay is described as follows: biochemical. The assay is classed as binding. How it is done: as §1, §2, §3, §4, §5, §6

In the next assay the target is T4, α2β2 nicotinic receptor (Rattus norvegicus, UniProt P12389+P12390).
T4 construct: expressed in transfected cells; host or cells: stably transfected cell lines (e.g., HEK293, COS, CHO, NIH3T3)
In words: biochemical. The assay is classed as binding. How it is done:
as §1, §2, §3, §4, §5, §6

In the next assay the target is T5, α3β2 nicotinic receptor (Rattus norvegicus, UniProt P04757+P12390).
T5 construct: expressed in transfected cells; host or cells: stably transfected cell lines (e.g., HEK293, COS, CHO, NIH3T3)
In words: biochemical. The assay is classed as binding. The procedure: as §1, §2, §3, §4, §5, §6

Assay [1] has as its target T6, α4β2* (endogenous α4β2, rat forebrain) (Rattus norvegicus, UniProt P09483+P12390).
T6 construct: from tissue; host or cells: rat forebrain
The assay is described as follows: biochemical. It is filed as binding. How it is done:
as §1, §2, §3, §4, §5, §6

The target in the next assay is T7, α3β4 nicotinic receptor (Rattus norvegicus, UniProt P04757+P12392).
T7 construct: expressed in transfected cells; host or cells: stably transfected cell lines (e.g., HEK293, COS, CHO, NIH3T3)
The assay is described as follows: biochemical. It is filed as binding. The procedure:
as §1, §2, §3, §4, §5, §6

Where “and” joins values, the source holds several entries; their conditions need not be identical. Equal values may be shown once. Marks after values point to notes of the source that are not given here.

T2 sequence (P12392 21-495): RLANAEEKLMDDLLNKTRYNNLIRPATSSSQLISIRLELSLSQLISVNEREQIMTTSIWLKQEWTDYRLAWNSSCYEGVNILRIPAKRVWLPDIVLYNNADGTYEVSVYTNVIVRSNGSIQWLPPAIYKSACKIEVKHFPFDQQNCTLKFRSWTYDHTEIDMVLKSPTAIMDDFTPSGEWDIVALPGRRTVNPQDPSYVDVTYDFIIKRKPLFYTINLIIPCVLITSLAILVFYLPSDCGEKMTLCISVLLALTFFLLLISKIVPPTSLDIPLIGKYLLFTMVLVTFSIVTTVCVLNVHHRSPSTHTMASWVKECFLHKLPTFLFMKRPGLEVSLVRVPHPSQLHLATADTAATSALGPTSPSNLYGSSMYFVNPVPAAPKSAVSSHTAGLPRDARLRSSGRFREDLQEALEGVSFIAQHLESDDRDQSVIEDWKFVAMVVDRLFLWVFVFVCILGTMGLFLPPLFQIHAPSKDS
T2 sequence (P12389 28-511): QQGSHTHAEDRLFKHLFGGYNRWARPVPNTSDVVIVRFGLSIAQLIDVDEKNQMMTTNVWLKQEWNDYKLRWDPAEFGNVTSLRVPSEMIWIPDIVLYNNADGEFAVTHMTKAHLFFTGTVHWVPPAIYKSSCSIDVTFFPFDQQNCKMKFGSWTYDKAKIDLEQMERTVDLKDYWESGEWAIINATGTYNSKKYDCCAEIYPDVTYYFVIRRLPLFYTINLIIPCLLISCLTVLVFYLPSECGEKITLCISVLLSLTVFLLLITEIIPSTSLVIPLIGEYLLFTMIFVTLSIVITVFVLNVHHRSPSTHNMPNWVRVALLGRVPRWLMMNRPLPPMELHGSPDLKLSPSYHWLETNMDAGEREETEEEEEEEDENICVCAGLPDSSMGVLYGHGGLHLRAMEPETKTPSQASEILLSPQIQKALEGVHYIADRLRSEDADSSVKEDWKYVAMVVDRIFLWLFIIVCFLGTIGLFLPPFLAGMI
T5 sequence (P12390 25-500): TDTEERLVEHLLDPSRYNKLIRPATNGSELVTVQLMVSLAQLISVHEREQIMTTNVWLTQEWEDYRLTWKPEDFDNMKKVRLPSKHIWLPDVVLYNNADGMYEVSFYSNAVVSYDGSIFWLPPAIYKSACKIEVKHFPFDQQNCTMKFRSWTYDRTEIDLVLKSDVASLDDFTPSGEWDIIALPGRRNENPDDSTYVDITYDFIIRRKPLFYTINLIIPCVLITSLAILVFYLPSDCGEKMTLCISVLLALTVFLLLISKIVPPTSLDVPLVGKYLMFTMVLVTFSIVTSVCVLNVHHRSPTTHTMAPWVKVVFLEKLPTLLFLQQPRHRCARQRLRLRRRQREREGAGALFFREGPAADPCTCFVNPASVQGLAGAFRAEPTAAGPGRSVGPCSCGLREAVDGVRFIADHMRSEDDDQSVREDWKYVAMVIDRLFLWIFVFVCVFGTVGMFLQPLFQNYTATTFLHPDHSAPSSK
T5 sequence (P04757 26-499): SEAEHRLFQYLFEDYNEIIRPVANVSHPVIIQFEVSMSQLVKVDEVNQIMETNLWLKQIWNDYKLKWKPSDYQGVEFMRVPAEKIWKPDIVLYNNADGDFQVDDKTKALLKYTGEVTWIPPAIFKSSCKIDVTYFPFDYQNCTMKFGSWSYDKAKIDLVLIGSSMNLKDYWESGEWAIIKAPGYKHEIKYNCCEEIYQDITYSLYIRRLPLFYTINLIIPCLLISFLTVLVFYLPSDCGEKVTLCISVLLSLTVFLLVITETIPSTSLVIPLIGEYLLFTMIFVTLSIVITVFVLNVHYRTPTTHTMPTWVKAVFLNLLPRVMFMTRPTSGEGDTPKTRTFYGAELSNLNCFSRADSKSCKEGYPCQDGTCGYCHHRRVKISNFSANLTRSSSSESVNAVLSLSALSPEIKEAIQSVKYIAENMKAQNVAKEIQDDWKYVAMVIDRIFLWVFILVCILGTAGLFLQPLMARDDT
T4 sequence (P12390 25-500): as the sequence (P12390 25-500) above
T4 sequence (P12389 28-511): as the sequence (P12389 28-511) above
T3 sequence (P09483 31-630): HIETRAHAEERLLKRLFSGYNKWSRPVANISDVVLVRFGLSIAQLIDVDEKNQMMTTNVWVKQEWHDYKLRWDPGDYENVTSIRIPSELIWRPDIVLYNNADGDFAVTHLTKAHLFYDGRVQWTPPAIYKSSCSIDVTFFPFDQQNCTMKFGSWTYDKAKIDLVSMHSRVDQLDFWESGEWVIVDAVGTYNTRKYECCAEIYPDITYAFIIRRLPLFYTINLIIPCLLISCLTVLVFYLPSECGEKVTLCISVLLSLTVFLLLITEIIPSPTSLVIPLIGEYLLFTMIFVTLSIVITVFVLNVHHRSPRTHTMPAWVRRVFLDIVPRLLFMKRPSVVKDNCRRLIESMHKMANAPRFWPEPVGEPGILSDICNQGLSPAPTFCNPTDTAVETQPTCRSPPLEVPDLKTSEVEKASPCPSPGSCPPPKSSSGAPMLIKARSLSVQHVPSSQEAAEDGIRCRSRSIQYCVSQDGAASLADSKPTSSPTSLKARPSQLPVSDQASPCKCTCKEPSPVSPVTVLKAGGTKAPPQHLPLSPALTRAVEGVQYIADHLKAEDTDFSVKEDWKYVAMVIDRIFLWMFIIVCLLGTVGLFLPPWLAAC
T3 sequence (P12390 25-500): as the sequence (P12390 25-500) above
T6 sequence (P09483 31-630): as the sequence (P09483 31-630) above
T6 sequence (P12390 25-500): as the sequence (P12390 25-500) above
T7 sequence (P04757 26-499): as the sequence (P04757 26-499) above
T7 sequence (P12392 21-495): as the sequence (P12392 21-495) above
T1 sequence (P09483 31-630): as the sequence (P09483 31-630) above
T1 sequence (P12392 21-495): as the sequence (P12392 21-495) above

As to `OCC[C@H]1C[C@@H]1c1cncc(OC[C@@H]2CCN2)c1` [Example 2, 2-[(1R,2S)-2-[5-[(2(S)-Azetidinyl)methoxy]-3-pyridyl]cyclopropyl]ethanol], the “effect in the forced swim test as indicated by a reduction in immobility time” value (shortened to “effect … by a reduction in immobility time”) in the assay on male Balb/cJ mice (mouse, in vivo, ip) is “positive effects”.

Take `OCCCCC#Cc1cncc(OC[C@@H]2CCN2)c1` [AMOP-H-OH, reference compound]: the “effect … by a reduction in immobility time” value with male Balb/cJ mice (mouse, in vivo, ip) is reported as “positive effects”.

Regarding `CN[C@H]1CC[C@@H](c2ccc(Cl)c(Cl)c2)c2ccccc21` [Sertraline, sertraline, reference compound], in the assay with male Balb/cJ mice (Table 2, 20 mg/kg i.p., 30 min before test, 6 min trial, vehicle 126.3, ** = significantly different from vehicle), the “Average Immobility Time” value is reported as 11.9** seconds.

As usually defined, the Ki is the equilibrium dissociation constant of an inhibitor or competing ligand from its target. High values mean a looser hold on the target, low ones a stronger hold on the target. As for `FCC[C@H]1C[C@@H]1c1cncc(OC[C@@H]2CCN2)c1`, the Ki at α4β4 nicotinic receptor amounted to 1300 nM; on α2β4 nicotinic receptor, 660 nM; on α4β2 nicotinic receptor it was 1 nM; at α2β2 nicotinic receptor it was 6.4 nM; at α3β2 nicotinic receptor it was 34 nM; in assay [1], 11 nM. Besides, on α3β4 nicotinic receptor, the inhibition constant Ki was over 10000 nM.

`OCC[C@H]1C[C@@H]1c1cncc(OC[C@@H]2CCN2)c1` [drawing 715]: the inhibition constant Ki on α2β4 nicotinic receptor worked out at 62 nM; on α4β2 nicotinic receptor it was 0.3 nM; on α2β2 nicotinic receptor, 0.9 nM; on α3β2 nicotinic receptor, 5.1 nM; in assay [1], 1.2 nM; at α3β4 nicotinic receptor, 640 nM.

For the compound `OCCCC[C@H]1C[C@@H]1c1cncc(OC[C@@H]2CCN2)c1`, the inhibition constant Ki on α4β4 nicotinic receptor was found to be 240 nM; at α2β4 nicotinic receptor it was 120 nM; at α4β2 nicotinic receptor, 0.5 nM; at α2β2 nicotinic receptor, 0.6 nM; at α3β2 nicotinic receptor, 6.5 nM; in assay [1] it was 1.4 nM.

Consider `OCCCc1cccc(-c2cncc(OC[C@@H]3CCN3)c2)c1` [Example 15c, 3-[3-[5-[(2(S)-Azetidinyl)methoxy]-3-pyridyl]phenyl]-1-propanol], for which the “reduction in immobility time compared to vehicle” value in the assay on male Balb/cJ mice (mouse, in vivo) worked out at 24.5 s. Further, the “effect … by a reduction in immobility time” value in the assay on male Balb/cJ mice (mouse, in vivo, ip) is on record as “positive effects”. Also, the “Average Immobility Time” value in the assay with male Balb/cJ mice (mouse, in vivo, ip, 5 mg/kg) was 110.6 s; with male Balb/cJ mice (mouse, in vivo, ip, 10 mg/kg), 105.1** seconds and 85.3** seconds; in the assay with male Balb/cJ mice (mouse, in vivo, ip, 20 mg/kg), 49.7** seconds.

The record behind these values is patent US8445684B2, “Nicotinic acetylcholine receptor ligands and the uses thereof” (PsycoGenics Inc., priority 2008, dated 2013).
